The values below come from patent US4203989A, “Anti-diarrheal diaryl-(1-azabicyclo(2.2.2)octan-2-yl)-alkanols and related compounds” (G. D. Searle & Co., priority 1979, dated 1980).

The test system of the experiment is gastrointestinal motility. As to the kind of experiment: Mouse Cecal Test (inhibition of gastrointestinal motility, charcoal in cecum). It is filed as in vivo, mouse (male Charles River mice). The following applies: IG (oral), 30 min before oral charcoal, cecum examined 3.5 h after charcoal, all-or-none, logistic method of Berkson, read-out: ED50 ± S.E. (median effective dose). As to the method: The method used for this assay is a modification of the techniques previously described by Macht and Barb-Gose, J. Amer. Pharm. Ass., 20, 558 (1931), and Janssen and Jageneau, J. Pharm. Pharmacol., 9, 381 (1957). Details are as follows:
A group of six, male Charles River mice weighing 20-25 g. which have been previously fasted for 24 hours are pretreated with the test compounds administered orally as a solution in water or suspended in 0.5% methyl cellulose. A constant volume of 10 ml./kg. is employed. Thirty minutes following administration of the test compounds, the animals are given a single oral dose of charcoal which consists of 0.2 ml. per mouse of 10% charcoal suspended in 1.0% methyl cellulose. Three and a half hours after charcoal administration, the animals are sacrificed and the cecum examined for the absence or presence of charcoal on an all-or-none basis.
The median effective dose (ED50) is then calculated for each compound using the logistic method of Berkson (1953).
In the case of `Cl.OC1(C(CC2CC3CCN2CC3)(c2ccccc2)c2ccccc2)CCCC1` (centres unmarked) [1-[2-(1-azabicyclo[2.2.2]octan-2-yl)-1,1-diphenylethyl] cyclopentanol hydrochloride], the ED50 (as a rule, the midpoint of the dose-response relation) was found to be 1.78 ± 0.83 mg/kg.

In the case of `OC1(C(CC2CC3CCN2CC3)(c2ccccc2)c2ccccc2)CCCC1` (centres unmarked) [1-[2-(1-azabicyclo[2.2.2]octan-2-yl)-1,1-diphenylethyl] cyclopentanol], the 50% effective dose (ED50) is 7.61 ± 2.23 mg/kg. Consider `CC(C)(O)C(CC1CC2CCN1CC2)(c1ccccc1)c1ccccc1` (stereo not drawn) [Alpha, alpha-dimethyl-beta, beta-diphenyl-1-azabicyclo [2.2.2]octane-2-propanol], for which the ED50 is 1.6 ± 0.28 mg/kg. The figure for `OCCC(CC1CC2CCN1CC2)(c1ccccc1)c1ccccc1` (centres unmarked) [Gamma, gamma-diphenyl-1-azabicyclo[2.2.2]octane-2-butanol] is 6.39 ± 2.09 mg/kg. The figure for `Cl.OCCC(CC1CC2CCN1CC2)(c1ccccc1)c1ccccc1` (centres unmarked) [gamma, gamma-diphenyl-1-azabicyclo[2.2.2]octane-2-butanol hydrochloride] is 1.2 ± 0.25 mg/kg.
